Where a name gives a salt, the structure may show the parent alone. Read-outs that look alike come from different tables or passages of the source.
What was measured:
[1] = tested on: Staphylococcus aureus No. 50774; test: In vivo efficacy against systemic infection; parameters: species or system male mice (ddY); details: NO.50774, in Mus musculus, 336 h, sc, twice, about 5 minutes and 6 hours after infection, read-out: ED50 (median effective dose)
Experimental: (§1) The contents in the vials (No. A and No. C) prepared in Example 17 were each dissolved in deionized water, and injections having various concentrations were prepared.
Compounds A, B, F, G, H and M were dissolved in deionized water. Compounds C, D, E and J were dissolved in an aqueous solution of sodium carbonate (pH 8-9) to prepare injections of various concentrations.
Each of the injections was administered to mice under the conditions described below, and the median effective doses (ED50) obtained are shown in Table II.
(§2) Mice: male mice (ddY) weighting about 20g
Staphylococcus aureus No. 50774;
Intravenous infection with 50 to 100
LD50 (about 5 × 10^8cells/mouse) of a
bacterial suspension in saline.
(§3) twice, about 5 minutes and 6 hours after
Staphylococcus aureus No. 50774 14 days
The numerals in the table show ED50 (mg/kg). ED50 values were
(§4) calculated in accordance with the Behrens-Kaerber method [Arch. Exp. Path

[2] = tested on: Staphylococcus aureus No. 50774; test: In vitro antibacterial activity (MIC); type: cell-based
Source text: (§5) In vitro antibacterial activity against 20 strains of bacteria
(§6) The numerals in the table show minimum inhibitory concentrations (MIC)

Proteus morganii Kono = test: In vitro antibacterial activity (MIC); type: cell-based; details: Morganella morganii, read-out: minimum inhibitory concentration (MIC)
Source text: as §5, §6

[3] = tested on: Serratia mercescens IFO 3736; test: In vitro antibacterial activity (MIC); type: cell-based
Source text: as §5, §6

[4] = tested on: Enterobacter cloacae P-2540; test: In vitro antibacterial activity (MIC); type: cell-based; details: P2540; Enterobacter cloacae P-2540; read-out: minimum inhibitory concentration (MIC)
Source text: as §5, §6

[5] = tested on: Shigella flexneri 4a P-330; test: In vitro antibacterial activity (MIC); type: cell-based; details: 4AP330, read-out: minimum inhibitory concentration (MIC)
Source text: as §5, §6

[6] = tested on: Staphylococcus aureus 209P JC-1; test: In vitro antibacterial activity (MIC); type: cell-based; details: read-out: minimum inhibitory concentration (MIC)
Source text: as §5, §6

[7] = tested on: Pseudomonas aeruginosa No.12; test: In vitro antibacterial activity (MIC); type: cell-based
Source text: as §5, §6

Proteus rettgeri P-2503 = test: In vitro antibacterial activity (MIC); type: cell-based; details: Providencia rettgeri
Source text: as §5, §6

[8] = tested on: Streptococcus faecalis P-2473; test: In vitro antibacterial activity (MIC); type: cell-based; details: Enterococcus faecalis
Source text: as §5, §6

Shigella flexneri 2a = test: In vitro antibacterial activity (MIC); type: cell-based; details: read-out: minimum inhibitory concentration (MIC)
Source text: as §5, §6

[9] = tested on: Salmonella typhimurium S-9; test: In vitro antibacterial activity (MIC); type: cell-based; details: Salmonella enterica; Salmonella typhimurium S-9; read-out: minimum inhibitory concentration (MIC)
Source text: as §5, §6

[10] = tested on: Pseudomonas aeruginosa Tsuchijima; test: In vitro antibacterial activity (MIC); type: cell-based; details: read-out: minimum inhibitory concentration (MIC)
Source text: as §5, §6

[11] = tested on: Streptococcus pyogenes 65A; test: In vitro antibacterial activity (MIC); type: cell-based; details: read-out: minimum inhibitory concentration (MIC)
Source text: as §5, §6

[12] = tested on: Salmonella enteritidis No. 1891; test: In vitro antibacterial activity (MIC); type: cell-based; details: Salmonella enterica; Salmonella enteritidis No. 1891; read-out: minimum inhibitory concentration (MIC)
Source text: as §5, §6

Escherichia coli P-5101 [13] = test: In vitro antibacterial activity (MIC); type: cell-based
Source text: as §5, §6

[14] = tested on: Klebsiella pneumoniae No. 13; test: In vitro antibacterial activity (MIC); type: cell-based
Source text: as §5, §6

[15] = tested on: Corynebacterium pyogenes C-21; test: In vitro antibacterial activity (MIC); type: cell-based; details: Rhodococcus (subgen. Prescottella) equi, C21; Corynebacterium pyogenes C-21; read-out: minimum inhibitory concentration (MIC)
Source text: as §5, §6

[16] = tested on: Escherichia coli NIHJ JC-2; test: In vitro antibacterial activity (MIC); type: cell-based
Source text: as §5, §6

Proteus mirabilis P-2381 = test: In vitro antibacterial activity (MIC); type: cell-based
Source text: as §5, §6

Escherichia coli P-140a = test: In vitro antibacterial activity (MIC); type: cell-based
Source text: as §5, §6

[17] = tested on: Pseudomonas aeruginosa No. 12; test: In vivo efficacy against systemic infection; parameters: species or system male mice (ddY); details: NO.12, in Mus musculus, sc, twice, about 5 minutes and 6 hours after infection, read-out: ED50 (median effective dose)
Experimental: as §1
(§7) Compounds A, B, F, G, H and M were dissolved in deionized water.
as §2
Pseudomonas aeruginosa No. 12;
(§8) Intraperitoneal infection with 50 to
(§9) of a bacterial suspension in tryptosoy
as §3
Pseudomonas aeruginosa No. 12
as §4

in vivo = details: mouse
Escherichia coli P-5101 [18] = test: In vivo efficacy against systemic infection; parameters: species or system male mice (ddY); details: P5101, in Mus musculus, 168 h, sc, twice, about 5 minutes and 6 hours after infection, read-out: ED50 (median effective dose)
Experimental: as §1, §7, §2, §8, §9, §3, §4

20 strains of bacteria = test: In vitro antibacterial activity, overall conclusions; type: cell-based; details: in vitro, Table I
Source text: as §5

[19] = Staphylococcus aureus No. 50774, read-out: minimum inhibitory concentration (MIC)
[20] = Pseudomonas aeruginosa Tsuchijima
[21] = IFO3736, Serratia mercescens IFO 3736, read-out: minimum inhibitory concentration (MIC)
[22] = Staphylococcus aureus 209P JC-1
[23] = Pseudomonas aeruginosa No.12, read-out: minimum inhibitory concentration (MIC)
[24] = P2503, Proteus rettgeri P-2503, read-out: minimum inhibitory concentration (MIC)
[25] = P2473, Streptococcus faecalis P-2473, read-out: minimum inhibitory concentration (MIC)
[26] = P5101, Escherichia coli P-5101, read-out: minimum inhibitory concentration (MIC)
[27] = Klebsiella pneumoniae No. 13, read-out: minimum inhibitory concentration (MIC)
[28] = NIHJJC2, Escherichia coli NIHJ JC-2, read-out: minimum inhibitory concentration (MIC)
[29] = P2381, Proteus mirabilis P-2381, read-out: minimum inhibitory concentration (MIC)

Structure (SMILES)	MIC [2, 19] [µg/mL]	MIC [4] [µg/mL]	MIC [5] [µg/mL]	MIC (Shigella flexneri 2a) [µg/mL]	MIC [9] [µg/mL]	MIC [10, 20] [µg/mL]	MIC [12] [µg/mL]	MIC [15] [µg/mL]	minimum inhibitory concentration (MIC) (Escherichia coli P-140a) [µg/mL]	MIC (Proteus morganii Kono; Proteus morganii Kono) [µg/mL]	MIC [3, 21] [µg/mL]	MIC [6, 22] [µg/mL]	MIC [7, 23] [µg/mL]	MIC (Proteus rettgeri P-2503; [24]) [µg/mL]	MIC [8, 25] [µg/mL]	MIC ([11]; Streptococcus pyogenes 65A) [µg/mL]	MIC (Escherichia coli P-5101 [13]; [26]) [µg/mL]	MIC [14, 27] [µg/mL]	MIC [16, 28] [µg/mL]	MIC (Proteus mirabilis P-2381; [29]) [µg/mL]	further results
CC1(C)S[C@@H]2[C@H](NC(=O)[C@H](NC(=O)c3c[nH]c4nc(N5CCN(C=O)CC5)ncc4c3=O)c3ccccc3)C(=O)N2[C@H]1C(=O)O [Compound B, D-α-[5,8-Dihydro-2-(4-formyl-1-piperazinyl)-5-oxopyrido[2,3-d]pyrimidine-6-carboxamido]-benzylpenicillin sodium salt]	0.78	12.5	6.25	3.13	1.56	1.56	0.78	1.56	12.5												ED50 [1]: 3.4 mg/kg; MIC (Proteus morganii Kono): 3.13 µg/mL; MIC ([3]; Serratia, IFO3736, read-out: minimum inhibitory concentration (MIC)): 12.5 µg/mL; MIC ([6]; Staphylococcus aureus, 209P): 0.78 µg/mL; MIC ([7]; Pseudomonas aeruginosa, NO.12, read-out: minimum inhibitory concentration (MIC)): 6.25 µg/mL; MIC (Proteus rettgeri P-2503; P2503, read-out: minimum inhibitory concentration (MIC)): 6.25 µg/mL; MIC ([8]; P2473, read-out: minimum inhibitory concentration (MIC)): 6.25 µg/mL; MIC ([11]; Streptococcus pyogenes, 65A): < 0.1 µg/mL; MIC (Escherichia coli P-5101 [13]; Escherichia coli, P5101, read-out: minimum inhibitory concentration (MIC)): 3.13 µg/mL; MIC ([14]; Klebsiella pneumoniae, NO.13, read-out: minimum inhibitory concentration (MIC)): 6.25 µg/mL; MIC ([16]; Escherichia coli, NIHJJC2, read-out: minimum inhibitory concentration (MIC)): 6.25 µg/mL; MIC (Proteus mirabilis P-2381; Proteus mirabilis, P2381, read-out: minimum inhibitory concentration (MIC)): 3.13 µg/mL; ED50 [17]: 17.7 mg/kg; LD50 at 168 h (in vivo; iv): 2830 mg/kg; LD50 at 168 h (in vivo; sc): < 4000 mg/kg; ED50 (Escherichia coli P-5101 [18]): 21 mg/kg
O=CN1CCN(c2ncc3c(=O)c(C(=O)O)c[nH]c3n2)CC1 [Compound K, 5,8-Dihydro-2-(4-formyl-1-piperazinyl)-5-oxopyrido[2,3-d]pyrimidine-6-carboxylic acid]		> 200	> 100	> 100	> 50		> 50	> 50	> 200	> 200	> 100	> 50	> 200	> 100	> 50	> 100	> 100	> 200	> 100	> 50	MIC ([2]; Staphylococcus aureus, NO.50774, read-out: minimum inhibitory concentration (MIC)): > 50 µg/mL; MIC ([10]; Pseudomonas aeruginosa): > 200 µg/mL; antibacterial activity (in words) (20 strains of bacteria): do not substantially show antibacterial activity
CC(=O)N1CCN(c2ncc3c(=O)c(C(=O)O)c[nH]c3n2)CC1 [Compound L, 5,8-Dihydro-2-(4-acetyl-1-piperazinyl)-5-oxopyrido[2,3-d]pyrimidine-6-carboxylic acid]	> 50	> 200	> 100	> 100	> 50	> 200	> 50	> 50	> 200	> 200	> 100	> 50	> 200	> 100	> 50	> 100	> 100	> 200	> 100	> 50	antibacterial activity (in words) (20 strains of bacteria): do not substantially show antibacterial activity

— US4103011A, “Novel penicillin compounds and process for preparation thereof” (priority 1976, dated 1978)
